Laboratory results as given in PubChem BioAssay (NCI).
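Values below derive from 48-hour exposures of cells grown in 96-well plates, with endpoints linearly interpolated between the two concentrations bracketing the appropriate inhibition level. The concentration for 50% growth inhibition is given as GI50. TGI denotes the concentration required for complete inhibition of growth.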

Legend:
Assay in all cases: growth of human tumour cells (NCI), 48 h
NCI-H226 lung = tested on: NCI-H226 lung
NCI/ADR-RES ovarian = tested on: NCI/ADR-RES ovarian
UO-31 renal = tested on: UO-31 renal
COLO 205 colon = tested on: COLO 205 colon
NCI-H460 lung = tested on: NCI-H460 lung
RXF 393 renal = tested on: RXF 393 renal
LOX IMVI melanoma = tested on: LOX IMVI melanoma
SNB-19 CNS = tested on: SNB-19 CNS
BT-549 breast = tested on: BT-549 breast
A549 NSCLC = tested on: A549 NSCLC
DU-145 prostate = tested on: DU-145 prostate
PC-3 prostate = tested on: PC-3 prostate
T-47D breast = tested on: T-47D breast
CAKI-1 renal = tested on: CAKI-1 renal
OVCAR-8 ovarian = tested on: OVCAR-8 ovarian
MOLT-4 leukemia = tested on: MOLT-4 leukemia
OVCAR-3 ovarian = tested on: OVCAR-3 ovarian
HCT-116 colon = tested on: HCT-116 colon
RPMI-8226 leukemia = tested on: RPMI-8226 leukemia
M14 melanoma = tested on: M14 melanoma
HS 578T breast = tested on: HS 578T breast
MDA-MB-231 breast = tested on: MDA-MB-231 breast
HOP-62 NSCLC = tested on: HOP-62 NSCLC
HT29 colon = tested on: HT29 colon
TK-10 renal = tested on: TK-10 renal
CCRF-CEM leukemia = tested on: CCRF-CEM leukemia
A498 renal = tested on: A498 renal
SW-620 colon = tested on: SW-620 colon
MALME-3M melanoma = tested on: MALME-3M melanoma
SN12C renal = tested on: SN12C renal
IGROV1 ovarian = tested on: IGROV1 ovarian
786-0 renal = tested on: 786-0 renal
HCC-2998 colon = tested on: HCC-2998 colon
ACHN renal = tested on: ACHN renal
NCI-H23 lung = tested on: NCI-H23 lung
UACC-62 melanoma = tested on: UACC-62 melanoma
SF-295 CNS = tested on: SF-295 CNS
EKVX NSCLC = tested on: EKVX NSCLC
HCT-15 colon = tested on: HCT-15 colon
SK-MEL-28 melanoma = tested on: SK-MEL-28 melanoma
UACC-257 melanoma = tested on: UACC-257 melanoma
SK-MEL-5 melanoma = tested on: SK-MEL-5 melanoma
OVCAR-4 ovarian = tested on: OVCAR-4 ovarian
SK-MEL-2 melanoma = tested on: SK-MEL-2 melanoma
MCF7 breast = tested on: MCF7 breast
NCI-H522 lung = tested on: NCI-H522 lung
SF-539 CNS = tested on: SF-539 CNS
OVCAR-5 ovarian = tested on: OVCAR-5 ovarian
KM12 colon = tested on: KM12 colon
SNB-75 CNS = tested on: SNB-75 CNS
SK-OV-3 ovarian = tested on: SK-OV-3 ovarian
U251 CNS = tested on: U251 CNS
MDA-MB-435 = tested on: MDA-MB-435
HOP-92 NSCLC = tested on: HOP-92 NSCLC
SF-268 CNS = tested on: SF-268 CNS

In the case of `COc1cc2c(cc1OCc1ccccc1)N=CC1C[C@@H](O)CN1C2=O` (stereo not given in full), the GI50 (NCI-H226 lung) is reported as 23.6 µM, the TGI (NCI-H226 lung) is reported as > 100 µM and the GI50 (NCI/ADR-RES ovarian) is reported as 14.7 µM. The TGI (NCI/ADR-RES ovarian) was > 56.7 µM, the GI50 (UO-31 renal) was 3.52 µM and the TGI (UO-31 renal) was 19.2 µM. For the same compound, the GI50 (COLO 205 colon) was 3.77 µM, the TGI (COLO 205 colon) was > 30.9 µM and the GI50 (NCI-H460 lung) was 10.7 µM. The TGI (NCI-H460 lung) was > 100 µM, the GI50 (RXF 393 renal) was 1.7 µM and the TGI (RXF 393 renal) was 4.95 µM. It also gave a GI50 (LOX IMVI melanoma) of 2.37 µM, a TGI (LOX IMVI melanoma) of 6.5 µM and a GI50 (SNB-19 CNS) of 6.52 µM. The TGI (SNB-19 CNS) was > 100 µM, the GI50 (BT-549 breast) was 2.47 µM and the TGI (BT-549 breast) was 9.54 µM. The GI50 (A549 NSCLC) was 19.2 µM, the TGI (A549 NSCLC) was > 100 µM and the GI50 (DU-145 prostate) was 4.04 µM. For the same compound, the TGI (DU-145 prostate) was 72.1 µM, the GI50 (PC-3 prostate) was 23.1 µM and the TGI (PC-3 prostate) was > 100 µM. The GI50 (T-47D breast) was 1.95 µM, the TGI (T-47D breast) was 7.09 µM and the GI50 (CAKI-1 renal) was 1.24 µM. The TGI (CAKI-1 renal) was 6.78 µM, the GI50 (OVCAR-8 ovarian) was 8.35 µM and the TGI (OVCAR-8 ovarian) was > 74.8 µM. It also gave a GI50 (MOLT-4 leukemia) of 2.01 µM, a TGI (MOLT-4 leukemia) of 5.51 µM and a GI50 (OVCAR-3 ovarian) of 2.64 µM. For the same compound, the TGI (OVCAR-3 ovarian) was 18.2 µM, the GI50 (HCT-116 colon) was 9.77 µM and the TGI (HCT-116 colon) was 42.2 µM. The GI50 (RPMI-8226 leukemia) was 2.57 µM, the TGI (RPMI-8226 leukemia) was > 28 µM and the GI50 (M14 melanoma) was 4.71 µM. The TGI (M14 melanoma) was 19.5 µM, the GI50 (HS 578T breast) was 4.84 µM and the TGI (HS 578T breast) was 18.6 µM. The GI50 (MDA-MB-231 breast) was 3.01 µM, the TGI (MDA-MB-231 breast) was 16.9 µM and the GI50 (HOP-62 NSCLC) was 2.4 µM. The TGI (HOP-62 NSCLC) was 9.52 µM, the GI50 (HT29 colon) was 7.22 µM and the TGI (HT29 colon) was > 100 µM. It also gave a GI50 (TK-10 renal) of 2.37 µM, a TGI (TK-10 renal) of 12.7 µM and a GI50 (CCRF-CEM leukemia) of 1.79 µM. It also gave a TGI (CCRF-CEM leukemia) of 12.2 µM, a GI50 (A498 renal) of 2.06 µM and a TGI (A498 renal) of 5.25 µM. The GI50 (SW-620 colon) was 3.16 µM, the TGI (SW-620 colon) was 31.3 µM and the GI50 (MALME-3M melanoma) was 9.08 µM. The TGI (MALME-3M melanoma) was 26 µM, the GI50 (SN12C renal) was 5.77 µM and the TGI (SN12C renal) was 24.2 µM. For the same compound, the GI50 (IGROV1 ovarian) was 6.89 µM, the TGI (IGROV1 ovarian) was > 60.7 µM and the GI50 (786-0 renal) was 2.26 µM. The TGI (786-0 renal) was 7.68 µM, the GI50 (HCC-2998 colon) was 17.1 µM and the TGI (HCC-2998 colon) was 37.1 µM. The GI50 (ACHN renal) was 5.83 µM, the TGI (ACHN renal) was 50 µM and the GI50 (NCI-H23 lung) was 7.83 µM. For the same compound, the TGI (NCI-H23 lung) was 25.3 µM, the GI50 (UACC-62 melanoma) was 0.824 µM and the TGI (UACC-62 melanoma) was 17.1 µM. For the same compound, the GI50 (SF-295 CNS) was 4.62 µM, the TGI (SF-295 CNS) was > 71.5 µM and the GI50 (EKVX NSCLC) was 24.2 µM. For the same compound, the TGI (EKVX NSCLC) was 56.4 µM, the GI50 (HCT-15 colon) was 15.2 µM and the TGI (HCT-15 colon) was > 82.1 µM. For the same compound, the GI50 (SK-MEL-28 melanoma) was 8.23 µM, the TGI (SK-MEL-28 melanoma) was 28.4 µM and the GI50 (UACC-257 melanoma) was 19.2 µM. The TGI (UACC-257 melanoma) was > 59.6 µM, the GI50 (SK-MEL-5 melanoma) was 2.53 µM and the TGI (SK-MEL-5 melanoma) was 5.38 µM. For the same compound, the GI50 (OVCAR-4 ovarian) was 12.4 µM, the TGI (OVCAR-4 ovarian) was > 73.5 µM and the GI50 (SK-MEL-2 melanoma) was 3.08 µM. For the same compound, the TGI (SK-MEL-2 melanoma) was 9.19 µM, the GI50 (MCF7 breast) was 5.06 µM and the TGI (MCF7 breast) was > 100 µM. The GI50 (NCI-H522 lung) was 1.4 µM, the TGI (NCI-H522 lung) was 7.43 µM and the GI50 (SF-539 CNS) was 2.11 µM. For the same compound, the TGI (SF-539 CNS) was 6.76 µM, the GI50 (OVCAR-5 ovarian) was 3.37 µM and the TGI (OVCAR-5 ovarian) was > 25.3 µM. The GI50 (KM12 colon) was 4.04 µM, the TGI (KM12 colon) was 32 µM and the GI50 (SNB-75 CNS) was 9.08 µM. The TGI (SNB-75 CNS) was 47 µM, the GI50 (SK-OV-3 ovarian) was 17.5 µM and the TGI (SK-OV-3 ovarian) was > 71.5 µM. For the same compound, the GI50 (U251 CNS) was 2.86 µM, the TGI (U251 CNS) was > 100 µM and the GI50 (MDA-MB-435) was 3.88 µM. It also gave a TGI (MDA-MB-435) of 14.7 µM, a GI50 (HOP-92 NSCLC) of 3.99 µM and a TGI (HOP-92 NSCLC) of 39 µM. It also gave a GI50 (SF-268 CNS) of 3.41 µM and a TGI (SF-268 CNS) of 26.7 µM.
